Source: the supplement of paper PMC10307832

Key:
Assay in all cases: relative viability (nuclei count vs DMSO), 5 days (fraction); higher = more cells survive
Selisistat + Vorinostat = compound: C1CC(C2=C(C1)C3=C(N2)C=CC(=C3)Cl)C(=O)N [Selisistat] + O=C(CCCCCCC(=O)Nc1ccccc1)NO [Vorinostat] (partner 1 µM)
In short: (§1)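 Relative viability equals treated-well nuclei counts divided by vehicle-well nuclei counts. Counts came from 4× images of lung cancer cell lines grown in 1536-well plates for 5 days after pin-tool dosing on the day after seeding. Dosing used one drug alone or a fixed anchor-drug dose plus five library-drug doses (not always all listed) in √10 steps, and values are medians of duplicate plates.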

Serdemetan + Luminespib = compound: c1ccc2c(CCNc3ccc(Nc4ccncc4)cc3)c[nH]c2c1 [Serdemetan] + CCNC(=O)c1noc(-c2cc(C(C)C)c(O)cc2O)c1-c1ccc(CN2CCOCC2)cc1 [Luminespib] (partner 0.01 µM)
In short: as §1

Serdemetan + Tozasertib = compound: c1ccc2c(CCNc3ccc(Nc4ccncc4)cc3)c[nH]c2c1 [Serdemetan] + Cc1cc(Nc2cc(N3CCN(C)CC3)nc(Sc3ccc(NC(=O)C4CC4)cc3)n2)n[nH]1 [Tozasertib] (partner 0.1 µM)
In short: as §1

Serdemetan + Olaparib = compound: c1ccc2c(CCNc3ccc(Nc4ccncc4)cc3)c[nH]c2c1 [Serdemetan] + O=C(c1cc(Cc2n[nH]c(=O)c3ccccc23)ccc1F)N1CCN(C(=O)C2CC2)CC1 [Olaparib] (partner 8 µM)
In short: as §1

| Cell Line | relative viability (Selisistat + Vorinostat; first compound 0.4 µM) | relative viability (Selisistat + Vorinostat; first compound 1.265 µM) | relative viability (Selisistat + Vorinostat; first compound 4 µM) | relative viability (Selisistat + Vorinostat; first compound 12.65 µM) | relative viability (Selisistat + Vorinostat; first compound 40 µM) | relative viability (Serdemetan + Luminespib; first compound 0.04 µM) | relative viability (Serdemetan + Luminespib; first compound 0.1265 µM) | relative viability (Serdemetan + Luminespib; first compound 0.4 µM) | relative viability (Serdemetan + Luminespib; first compound 1.265 µM) | relative viability (Serdemetan + Luminespib; first compound 4 µM) | relative viability (Serdemetan + Tozasertib; first compound 0.04 µM) | relative viability (Serdemetan + Tozasertib; first compound 0.1265 µM) | relative viability (Serdemetan + Tozasertib; first compound 0.4 µM) | relative viability (Serdemetan + Tozasertib; first compound 4 µM) | relative viability (Serdemetan + Olaparib; first compound 0.04 µM) | relative viability (Serdemetan + Olaparib; first compound 0.1265 µM) | relative viability (Serdemetan + Olaparib; first compound 0.4 µM) | relative viability (Serdemetan + Olaparib; first compound 1.265 µM) | relative viability (Serdemetan + Olaparib; first compound 4 µM) | relative viability (Serdemetan + Tozasertib; first compound 1.265 µM) |
| --- | --- | --- | --- | --- | --- | --- | --- | --- | --- | --- | --- | --- | --- | --- | --- | --- | --- | --- | --- | --- |
| NCI-H522 | 0.908 | 0.868 | 0.835 | 0.919 | 1.13 | 1.15 | 1.42 | 1.25 | 0.873 | 1.45 | 0.554 | 0.575 | 0.44 | 0.497 | 0.595 | 0.665 | 0.65 | 0.458 | 0.477 | – |
| HCC-15 | 0.912 | 0.931 | 0.875 | 0.878 | 1.07 | 0.362 | 0.33 | 0.281 | 0.348 | 0.288 | 0.377 | 0.367 | 0.377 | 0.283 | 0.673 | 0.667 | 0.57 | 0.38 | 0.386 | 0.294 |
| A-427 | 0.905 | 0.934 | – | 0.881 | 0.875 | 0.934 | 0.924 | 0.953 | 0.742 | 0.49 | 0.2 | 0.198 | 0.192 | 0.16 | 0.693 | 0.639 | 0.711 | 0.66 | 0.643 | 0.165 |
| NCI-H2228 | 0.724 | 0.5 | 1 | 0.725 | 1.08 | 0.119 | 0.201 | 0.159 | 0.16 | 0.145 | 0.267 | 0.246 | 0.371 | 0.162 | 0.493 | 0.458 | 0.358 | 0.301 | 0.264 | 0.128 |
| NCI-H1734 | 0.871 | 0.68 | 0.783 | 0.843 | 0.85 | 0.198 | 0.24 | 0.196 | 0.15 | 0.186 | 0.29 | 0.235 | 0.209 | 0.134 | 0.327 | 0.183 | 0.171 | 0.114 | 0.149 | 0.142 |
| PC-14 | 0.914 | 0.764 | 0.843 | 0.776 | 0.931 | 0.129 | 0.163 | – | 0.149 | 0.107 | 0.522 | 0.595 | – | 0.428 | 0.307 | 0.261 | – | 0.204 | 0.167 | 0.548 |
| NCI-H1915 | 0.494 | 0.538 | 0.661 | 0.538 | 0.641 | 0.74 | 0.73 | 0.672 | 0.514 | 0.532 | 0.406 | 0.416 | 0.38 | 0.396 | 0.238 | 0.242 | 0.223 | 0.208 | 0.24 | 0.317 |
| NCI-H1666 | 1.09 | 1.13 | 1.11 | 1.13 | 1.17 | 1.01 | 0.992 | 1.05 | 0.869 | 0.811 | 0.569 | 0.588 | 0.588 | 0.547 | 0.735 | 0.701 | 0.668 | – | 0.678 | 0.553 |
| HCC-366 | 0.464 | 0.434 | 0.57 | 0.441 | 0.384 | – | – | – | – | – | 0.134 | 0.0681 | 0.0532 | 0.042 | 0.22 | 0.0954 | 0.0557 | 0.0411 | 0.0631 | 0.0456 |
| SK-MES-1 | 1.13 | 1.15 | 1.01 | 1.1 | 1.18 | 0.789 | 0.731 | 0.799 | 0.617 | 0.772 | 0.871 | 0.859 | 0.851 | 0.865 | 0.688 | 0.687 | 0.635 | 0.522 | 0.43 | 0.747 |
| SW 1573 | 0.761 | 0.94 | – | 1.19 | 1.03 | 0.343 | 0.161 | 0.215 | 0.113 | 0.192 | 0.168 | 0.15 | 0.218 | 0.18 | 0.571 | 0.464 | 0.445 | 0.21 | 0.296 | 0.248 |
| NCI-H661 | 0.824 | 0.77 | 0.829 | 0.727 | 0.66 | 0.91 | 0.943 | 0.95 | 0.799 | 0.854 | 0.362 | 0.381 | 0.385 | 0.352 | 0.711 | 0.648 | 0.634 | 0.549 | 0.558 | 0.308 |
| PC-3 [JPC-3] | 0.899 | 0.979 | – | 0.748 | 0.691 | 0.651 | 0.612 | 0.621 | 0.654 | 0.494 | 0.841 | 0.795 | 0.784 | 0.87 | 1.11 | 1.08 | 0.969 | 1.09 | 1.18 | 0.929 |
| NCI-H1623 | – | – | – | – | – | 0.498 | 0.481 | 0.432 | 0.551 | 0.427 | 0.421 | 0.517 | 0.349 | 0.399 | – | – | – | – | – | 0.385 |
| Calu-6 | – | – | – | – | – | – | – | – | – | – | – | – | – | – | 0.561 | 0.612 | 0.555 | 0.412 | 0.362 | – |
